These are literature values, as cited in patent US6645390B1, “Composition and method for treating hydrocarbon fires” (Hazard Control Technologies, Inc., priority 1994, dated 2003).

With isononanoic acid, the solubility in water entry is reported as “slightly soluble”. In addition, the pH entry (at the concentration of its slight solubility in water) is “about 3.5”.
